Source: ChEMBL document CHEMBL4613212, “Insights of synthetic analogues of anti-leprosy agents” (Bioorg Med Chem, 2019)
In brackets after ≈: the same amount, converted by molar mass.

Columns and labels:
Enterococcus faecalis [1] = experiment: Antimicrobial activity against Enterococcus faecalis ATCC 29212 by broth microdilution assay; format: functional
Staphylococcus aureus = experiment: Antimicrobial activity against Staphylococcus aureus ATCC 25923 by broth microdilution assay; format: functional
Enterococcus faecalis [2] = experiment: Antimicrobial activity against Enterococcus faecalis ATCC 51922 by broth microdilution assay; format: functional
Listeria monocytogenes = experiment: Antimicrobial activity against Listeria monocytogenes ATCC 1911 by broth microdilution assay; format: functional
Klebsiella pneumoniae = experiment: Antimicrobial activity against Klebsiella pneumoniae 700603 by broth microdilution assay; format: functional
Pseudomonas aeruginosa = experiment: Antimicrobial activity against Pseudomonas aeruginosa ATCC 27853 by broth microdilution assay; format: functional
Escherichia coli [3] = experiment: Antimicrobial activity against Escherichia coli ATCC 35218 by broth microdilution assay; format: functional
Escherichia coli [4] = experiment: Antimicrobial activity against Escherichia coli ATCC 25922 by broth microdilution assay; format: functional
[5] = system: Mycobacterium tuberculosis; experiment: Antitubercular activity against Mycobacterium tuberculosis H37Rv ATCC 27294 incubated for 7 days by microplate alamar blue assay; format: functional; settings: H37Rv ATCC 27294, 168 h
Mycobacterium leprae = experiment: Anti-leprotic activity against Mycobacterium leprae assessed as maximum bactericidal dilutions; format: functional
[6] = Inhibition of Mycobacterium smegmatis ATCC 607 dihydrofolic reductase; set-up: species or system Mycolicibacterium smegmatis
[7] = system: Mycolicibacterium smegmatis; experiment: Inhibition of Mycobacterium smegmatis ATCC 607 dihydrofolic reductase assessed as ratio of Km to Ki
[8] = system: Mycolicibacterium smegmatis; experiment: Antimicrobial activity against Mycobacterium smegmatis ATCC 607; format: functional; settings: Mycolicibacterium smegmatis, ATCC 607; read-out: MIC
[9] = system: Mycobacterium tuberculosis; experiment: Antitubercular activity against Mycobacterium tuberculosis H37Rv ATCC 27294 assessed as growth inhibition at 6.25 ug/ml by microplate alamar blue assay relative to control; format: functional
[10] = system: Mycobacterium tuberculosis; experiment: Antitubercular activity against Mycobacterium tuberculosis H37Rv ATCC 27294 assessed as inhibition of [3H]-thymidine incorporation relative to control; format: functional

Cc1ccc(/C=N/NC(=S)Nc2ccc(C(F)(F)F)cc2)cc1
MIC (Enterococcus faecalis [1]): 400 mg/L (≈ 1190 µM) | MIC (Staphylococcus aureus): 400 mg/L (≈ 1190 µM) | MIC (Enterococcus faecalis [2]): 400 mg/L (≈ 1190 µM) | MIC (Listeria monocytogenes): 800 mg/L (≈ 2370 µM) | MIC (Klebsiella pneumoniae): 400 mg/L (≈ 1190 µM) | MIC (Pseudomonas aeruginosa): 400 mg/L (≈ 1190 µM) | MIC (Escherichia coli [3]): 800 mg/L (≈ 2370 µM) | MIC (Escherichia coli [4]): 400 mg/L (≈ 1190 µM) | MIC [5]: 200 mg/L (≈ 593 µM)

CCCCCCCCC(C(=O)O)C1CCCCC1 (centres undefined)
fold change (FC) (Mycobacterium leprae): 110

N#Cc1ccc(/C=N/NC(=S)Nc2ccc(C(F)(F)F)cc2)cc1
MIC (Enterococcus faecalis [1]): 200 mg/L (≈ 574 µM) | MIC (Staphylococcus aureus): 400 mg/L (≈ 1150 µM) | MIC (Enterococcus faecalis [2]): 400 mg/L (≈ 1150 µM) | MIC (Listeria monocytogenes): 400 mg/L (≈ 1150 µM) | MIC (Klebsiella pneumoniae): 400 mg/L (≈ 1150 µM) | MIC (Pseudomonas aeruginosa): 400 mg/L (≈ 1150 µM) | MIC (Escherichia coli [3]): 400 mg/L (≈ 1150 µM) | MIC (Escherichia coli [4]): 400 mg/L (≈ 1150 µM) | MIC [5]: 200 mg/L (≈ 574 µM)

CCCCCCCCCC(C(=O)O)C1C=CCC1 (centres undefined)
fold change (FC) (Mycobacterium leprae): 150

CCCCCCCCC(CCC1CCCCC1)C(=O)O (centres undefined)
fold change (FC) (Mycobacterium leprae): 220

CCCCCCCCC(CCC1CCCC1)C(=O)O (centres undefined)
fold change (FC) (Mycobacterium leprae): 180

Nc1nc(N)c2nc(CNc3ccc(C(=O)N[C@@H](CCC(=O)O)C(=O)O)cc3)cnc2n1 [AMINOPTERIN]
Ki [6]: 0.18 nM | Ratio [7]: 23100 | MIC [8]: 742 µM (≈ 327 µg/mL)

CCCCCCC(CCC1CCCCC1)C(=O)O (centres undefined)
fold change (FC) (Mycobacterium leprae): 125

CC(C)CCc1cnc2nc(N)nc(N)c2n1
Ki [6]: 1 nM | Ratio [7]: 4100 | MIC [8]: 775 µM (≈ 180 µg/mL)

c1coc(-c2ncnc3c2ncn3CC2CCCCC2)c1
inhibition at 6.25 µg/mL [9]: 22% | inhibition (INH) [10]: 60%

c1csc(-c2[nH]cnc3ncnc2-3)c1
inhibition at 6.25 µg/mL [9]: 7% | inhibition (INH) [10]: <10%

Clc1nc(-c2ccco2)c2ncn(C3CCOCC3)c2n1
inhibition at 6.25 µg/mL [9]: 6% | inhibition (INH) [10]: 36%

O=C(N[C@H](CO)[C@H](O)c1ccc([N+](=O)[O-])cc1)C(Cl)Cl [CHLORAMPHENICOL]
MIC (Enterococcus faecalis [1]): 200 mg/L (≈ 619 µM) | MIC (Staphylococcus aureus): 100 mg/L (≈ 309 µM) | MIC (Enterococcus faecalis [2]): 200 mg/L (≈ 619 µM) | MIC (Listeria monocytogenes): 100 mg/L (≈ 309 µM) | MIC (Klebsiella pneumoniae): 200 mg/L (≈ 619 µM) | MIC (Pseudomonas aeruginosa): 200 mg/L (≈ 619 µM) | MIC (Escherichia coli [3]): 100 mg/L (≈ 309 µM) | MIC (Escherichia coli [4]): 25 mg/L (≈ 77.4 µM)

FC(F)(F)c1ccc(NC(=S)N/N=C/c2ccc(Cl)cc2)cc1
MIC (Enterococcus faecalis [1]): 400 mg/L (≈ 1120 µM) | MIC (Staphylococcus aureus): 400 mg/L (≈ 1120 µM) | MIC (Enterococcus faecalis [2]): 400 mg/L (≈ 1120 µM) | MIC (Listeria monocytogenes): 800 mg/L (≈ 2240 µM) | MIC (Klebsiella pneumoniae): 400 mg/L (≈ 1120 µM) | MIC (Pseudomonas aeruginosa): 400 mg/L (≈ 1120 µM) | MIC (Escherichia coli [3]): 400 mg/L (≈ 1120 µM) | MIC (Escherichia coli [4]): 400 mg/L (≈ 1120 µM) | MIC [5]: 400 mg/L (≈ 1120 µM)

CCCCCCCC(CCC1CCCCC1)C(=O)O (centres undefined)
fold change (FC) (Mycobacterium leprae): 160

CC(C)Cc1cnc2nc(N)nc(N)c2n1
Ki [6]: 0.9 nM | Ratio [7]: 4560 | MIC [8]: 688 µM (≈ 150 µg/mL)

COc1cc(Cc2cnc(N)nc2N)cc(OC)c1OC [TRIMETHOPRIM]
Ki [6]: 70 nM | Ratio [7]: 54.6 | MIC [8]: 34 µM (≈ 9.87 µg/mL)

Nc1nc(N)c2nc(Cc3ccc(Cl)c(Cl)c3)cnc2n1
Ki [6]: 2 nM | Ratio [7]: 58.5 | MIC [8]: > 311 µM

CCCCCCC(CCC1CCCC1)C(=O)O (centres undefined)
fold change (FC) (Mycobacterium leprae): 320

COc1cc(CCc2cnc3nc(N)nc(N)c3n2)cc(OC)c1OC
Ki [6]: 18 nM | Ratio [7]: 2050 | MIC [8]: > 281 µM

CC(C)c1ccc(/C=N/NC(=S)Nc2ccc(C(F)(F)F)cc2)cc1
MIC (Enterococcus faecalis [1]): 400 mg/L (≈ 1090 µM) | MIC (Staphylococcus aureus): 400 mg/L (≈ 1090 µM) | MIC (Enterococcus faecalis [2]): 400 mg/L (≈ 1090 µM) | MIC (Listeria monocytogenes): 400 mg/L (≈ 1090 µM) | MIC (Klebsiella pneumoniae): 400 mg/L (≈ 1090 µM) | MIC (Pseudomonas aeruginosa): 400 mg/L (≈ 1090 µM) | MIC (Escherichia coli [3]): 800 mg/L (≈ 2190 µM) | MIC (Escherichia coli [4]): 400 mg/L (≈ 1090 µM) | MIC [5]: 200 mg/L (≈ 547 µM)

CN(Cc1cnc2nc(N)nc(N)c2n1)c1ccc(C(=O)N[C@@H](CCC(=O)O)C(=O)O)cc1 [METHOTREXATE]
Ki [6]: 0.35 nM | Ratio [7]: 11700 | MIC [8]: 2200 µM (≈ 1000 µg/mL)

Oc1ccc(/C=N/NC(=S)Nc2ccc(C(F)(F)F)cc2)cc1
MIC (Enterococcus faecalis [1]): 400 mg/L (≈ 1180 µM) | MIC (Staphylococcus aureus): 400 mg/L (≈ 1180 µM) | MIC (Enterococcus faecalis [2]): 400 mg/L (≈ 1180 µM) | MIC (Listeria monocytogenes): 400 mg/L (≈ 1180 µM) | MIC (Klebsiella pneumoniae): 400 mg/L (≈ 1180 µM) | MIC (Pseudomonas aeruginosa): 400 mg/L (≈ 1180 µM) | MIC (Escherichia coli [3]): 400 mg/L (≈ 1180 µM) | MIC (Escherichia coli [4]): 400 mg/L (≈ 1180 µM) | MIC [5]: 400 mg/L (≈ 1180 µM)

Clc1nc(-c2cccs2)c2ncn(C3CCOCC3)c2n1
inhibition at 6.25 µg/mL [9]: 7% | inhibition (INH) [10]: 61%
